Measured values published in US8785488B2 (Exelixis Patent Company LLC, priority 2009, dated 2014).

These compounds were tested against T1, human TGR5 (h-TGR5) (Homo sapiens, UniProt Q8TDU6) (assay: TGR5/CRE-Luciferiase Assay (HEK 293 hTGR5/CRE-Luc cells)). Conditions: h-TGR5 CRE-Luc EC50, Table 1; read-out: CRE-Luc (EC50).
T1 construct: expressed in transfected cells
T1 sequence (Q8TDU6 1-330): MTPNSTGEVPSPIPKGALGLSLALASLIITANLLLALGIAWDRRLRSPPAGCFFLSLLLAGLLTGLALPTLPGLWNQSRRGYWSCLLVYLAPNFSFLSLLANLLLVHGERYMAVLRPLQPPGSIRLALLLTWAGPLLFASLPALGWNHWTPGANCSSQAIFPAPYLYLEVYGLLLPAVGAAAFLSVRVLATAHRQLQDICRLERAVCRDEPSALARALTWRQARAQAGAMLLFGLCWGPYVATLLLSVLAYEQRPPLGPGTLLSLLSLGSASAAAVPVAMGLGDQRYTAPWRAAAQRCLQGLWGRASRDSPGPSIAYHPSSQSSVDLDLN
Type: cell-based
Method in brief: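 HEK293 cells stably carrying hTGR5 and a CRE-luciferase reporter were exposed to serially diluted compounds (diluted in DMEM with 5% DMSO) for 6 h. Cells were then lysed in luciferase buffer, luminescence was read, and EC50 values were derived from dose-response curves.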

Question: With CC(C)(c1ccc(Cl)c(Cl)c1)c1cnc(SCc2ccc(C(N)=O)cc2F)n1-c1ccc(F)cc1 [4-[({5-[1-(3,4-dichlorophenyl)-1-methylethyl]-1-(4-fluorophenyl)-1H-imidazol-2-yl}thio)methyl]-3-fluorobenzamide] as the compound, how does the EC50 read?
Answer: 100 to 1000 nM

Question: Which EC50 does the source give for CC(C)(c1ccc(Cl)c(Cl)c1)c1cnc(SCC2CCNCC2)n1-c1ccc(F)cc1 [4-[({5-[1-(3,4-dichlorophenyl)-1-methylethyl]-1-(4-fluorophenyl)-1H-imidazol-2-yl}thio)methyl]piperidine] here?
Answer: 1000 to 10000 nM

Question: Which EC50 does the source give for CC(C)(c1ccc(Cl)c(Cl)c1)c1cnc(SCc2ccc(S(N)(=O)=O)c(F)c2)n1-c1ccc(F)cc1 [4-[({5-[1-(3,4-dichlorophenyl)-1-methylethyl]-1-(4-fluorophenyl)-1H-imidazol-2-yl}thio)methyl}-2-fluorobenzenesulfonamide] here?
Answer: 100 to 1000 nM

Question: Which EC50 does the source give for CC(C)(c1ccc(Cl)c(Cl)c1)c1cnc(SCc2c(F)cc(C(=O)O)cc2F)n1-c1ccc(F)c(CO)c1 [4-[({5-[1-(3,4-dichlorophenyl)-1-methylethyl]-1-[4-fluoro-3-(hydroxymethyl)phenyl]-1H-imidazol-2-yl}thio)methyl]-3,5-difluorobenzoic acid] here?
Answer: 100 to 1000 nM

Question: CC(C)NC(=O)N1CCC(CSc2ncc(C(C)(C)c3ccc(F)c(F)c3)n2-c2ccc(F)cc2)CC1 [4-[({5-[1-(3,4-difluorophenyl)-1-methylethyl]-1-(4-fIuorophenyl)-1H-imidazol-2-yl}thio)methyl]-N-(1-methylethyl)piperidine-1-carboxamide] was tested. Which EC50 did it give?
Answer: 100 to 1000 nM

Question: With CC(C)(c1ccc(F)c(F)c1)c1cnc(SCc2ccc(C(=O)O)cc2F)n1-c1ccc(F)cc1 [4-[({5-[1-(3,4-difluorophenyl)-1-methylethyl]-1-(4-fluorophenyl)-1H-imidazol-2-yl}thio)methyl]-3-fluorobenzoic acid] as the compound, how does the EC50 read?
Answer: 100 to 1000 nM

Question: With CC(C)(c1ccc(Cl)c(O)c1)c1cnc(SCc2c(F)cc(C(=O)O)cc2F)n1-c1ccc(F)cc1 [4-[({5-[1-(4-chloro-3-hydroxyphenyl)-1-methylethyl]-1-(4-fluorophenyl)-1H-imidazol-2-yl}thio)methyl]-3,5-difluorobenzoic acid] as the compound, how does the EC50 read?
Answer: 100 to 1000 nM

Question: How did the EC50 turn out when CC(C)(c1ccc(Cl)c(Cl)c1)c1c(Cl)nc(SCc2c(F)cccc2Cl)n1-c1ccc(F)cc1 [4-chloro-2-{[(2-chloro-6-fluorophenyl)methyl]thio}-5-[1-(3,4-dichlorophenyl)-1-methylethyl]-1-(4-fluorophenyl)-1H-imidazole] was run?
Answer: 100 to 1000 nM

Question: CC(C)(c1ccc(Cl)c(Cl)c1)c1cnc(SCc2cc(C(N)=O)ccc2Cl)n1-c1ccc(F)cc1 [4-chloro-3-[({5-[1-(3,4-dichlorophenyl)-1-methylethyl]-1-(4-fluorophenyl)-1H-imidazol-2-yl}thio)methyl]benzamide] was tested. Which EC50 did it give?
Answer: 100 to 1000 nM

Question: Which EC50 does the source give for CC(C)(c1ccc(Cl)c(Cl)c1)c1cnc(SCc2cc(S(N)(=O)=O)ccc2Cl)n1-c1ccc(F)cc1 [4-chloro-3-[({5-[1-(3,4-dichlorophenyl)-1-methylethyl]-1-(4-fluorophenyl)-1H-imidazol-2-yl}thio)methyl]benzenesulfonamide] here?
Answer: 100 to 1000 nM

Question: With CC(C)(c1ccc(Cl)c(Cl)c1)c1cnc(SCc2cc(C#N)ccc2Cl)n1-c1ccc(F)cc1 [4-chloro-3-[({5-[1-(3,4-dichlorophenyl)-1-methylethyl]-1-(4-fluorophenyl)-1H-imidazol-2-yl}thio)methyl]benzonitrile] as the compound, how does the EC50 read?
Answer: < 100 nM

Question: Which EC50 does the source give for CNS(=O)(=O)c1ccc(C(C)(C)c2cnc(SCc3ccc(F)cc3Cl)n2-c2ccc(F)cc2)cc1 [4-{1-[2-{[(2-chloro-4-fluorophenyl)methyl]thio}-1-(4-fluorophenyl)-1H-imidazol-5-yl]-1-methylethyl}-N-methylbenzenesulfonamide] here?
Answer: 100 to 1000 nM

Question: For CC(C)(c1ccc(O)c(O)c1)c1cnc(SCc2ccc(F)cc2Cl)n1-c1ccc(F)cc1 [4-{1-[2-{[(2-chloro-4-fluorophenyl)methyl]thio}-1-(4-fluorophenyl)-1H-imidazol-5-yl]-1-methylethyl}benzene-1,2-diol], which EC50 is on record?
Answer: < 100 nM

Question: CC(C)(c1ccc(Cl)c(OCCN2CCOCC2)c1)c1cnc(SCc2c(F)cccc2Cl)n1-c1ccc(F)cc1 [4-{2-[(2-chloro-5-{1-[2-{[(2-chloro-6-fluorophenyl)methyl]thio}-1-(4-fluorophenyl)-1H-imidazol-5-yl]-1-methylethyl}phenyl)oxy]ethyl}morpholine] was tested. Which EC50 did it give?
Answer: 100 to 1000 nM

Question: Which EC50 does the source give for CC(C)(c1ccc(Cl)c(Cl)c1)c1cnc(C2=CCN(S(C)(=O)=O)CC2)n1-c1ccc(F)cc1 [4-{5-[1-(3,4-dichlorophenyl)-1-methylethyl]-1-(4-fluorophenyl)-1H-imidazol-2-yl}-1-(methylsulfonyl)-1,2,3,6-tetrahydropyridine] here?
Answer: 1000 to 10000 nM

Question: With CC(C)(c1ccc(Cl)c(Cl)c1)c1cnc(C2CCN(S(C)(=O)=O)CC2)n1-c1ccc(F)cc1 [4-{5-[1-(3,4-dichlorophenyl)-1-methylethyl]-1-(4-fluorophenyl)-1H-imidazol-2-yl}-1-(methylsulfonyl)piperidine] as the compound, how does the EC50 read?
Answer: 1000 to 10000 nM

Question: For CC(C)(c1ccc(Cl)c(Cl)c1)c1cnc(C2CCN(C(=O)NN3CCCC3)CC2)n1-c1ccc(F)cc1 [4-{5-[1-(3,4-dichlorophenyl)-1-methylethyl]-1-(4-fluorophenyl)-1H-imidazol-2-yl}-N-pyrrolidin-1-ylpiperidine-1-carboxamide], which EC50 is on record?
Answer: 1000 to 10000 nM

Question: Which EC50 does the source give for COc1ccc(C(C)(C)c2cnc(C(=O)N3CCOCC3)n2-c2ccc(F)cc2)cc1OC [4-{[5-{1-[3,4-bis(methyloxy)phenyl]-1-methylethyl}-1-(4-fluorophenyl)-1H-imidazol-2-yl]carbonyl}morpholine] here?
Answer: 1000 to 10000 nM

Question: Which EC50 does the source give for CC(C)(c1ccc(Cl)c(Cl)c1)c1nc(CSc2ccc(F)cc2Cl)cn1-c1ccc(F)cc1 [4-{[(2-chloro-4-fluorophenyl)thio]methyl}-2-[1-(3,4-dichlorophenyl)-1-methylethyl]-1-(4-fluorophenyl)-1H-imidazole] here?
Answer: 1000 to 10000 nM

Question: How did the EC50 turn out when CC(C)(c1ccc(Cl)c(Cl)c1)c1cnc(SCc2ccc(F)cc2Cl)n1-c1ccc(F)c(C(N)=O)c1 [5-(2-{[(2-chloro-4-fluorophenyl)methyl]thio}-5-[1-(3,4-dichlorophenyl)-1-methylethyl]-1H-imidazol-1-yl)-2-fluorobenzamide] was run?
Answer: 100 to 1000 nM

Question: With CC(C)(c1ccc(Cl)c(Cl)c1)c1cnc(SCc2ccc(F)cc2Cl)n1-c1ccc(F)c(C#N)c1 [5-(2-{[(2-chloro-4-fluorophenyl)methyl]thio}-5-[1-(3,4-dichlorophenyl)-1-methylethyl]-1H-imidazol-1-yl)-2-fluorobenzonitrile] as the compound, how does the EC50 read?
Answer: 100 to 1000 nM

Question: How did the EC50 turn out when COc1c(Cl)cc(C(C)(C)c2cnc(SCc3ccc(F)c(S(N)(=O)=O)c3)n2-c2ccc(F)cc2)cc1Cl [5-({[5-{1-[3,5-dichloro-4-(methyloxy)phenyl]-1-methylethyl}-1-(4-fluorophenyl)-1H-imidazol-2-yl]thio}methyl)-2-fluorobenzenesulfonamide] was run?
Answer: < 100 nM

Question: For COc1ccc(C(C)(C)c2cnc(SCc3ccc(F)c(C(=O)O)c3)n2-c2ccc(F)cc2)cc1Cl [5-({[5-{1-[3-chloro-4-(methyloxy)phenyl]-1-methylethyl}-1-(4-fluorophenyl)-1H-imidazol-2-yl]thio}methyl)-2-fluorobenzoic acid], which EC50 is on record?
Answer: 100 to 1000 nM

Question: CC(C)(c1ccc2c(c1)OCO2)c1cnc(SCc2ccc(F)cc2Cl)n1-c1ccc(F)cc1 [5-[1-(1,3-benzodioxol-5-yl)-1-methylethyl]-2-{[(2-chloro-4-fluorophenyl)methyl]thio}-1-(4-fluorophenyl)-1H-imidazole] was tested. Which EC50 did it give?
Answer: 100 to 1000 nM

Question: With CC(C)(c1ccc2c(c1)OCO2)c1cnc(SCc2c(F)cccc2Cl)n1-c1ccc(F)cc1 [5-[1-(1,3-benzodioxol-5-yl)-1-methylethyl]-2-{[(2-chloro-6-fluorophenyl)methyl]thio}-1-(4-fluorophenyl)-1H-imidazole] as the compound, how does the EC50 read?
Answer: < 100 nM

Question: With CC(C)(c1ccc(Cl)c(Cl)c1)c1cnc(-c2ccc(F)cc2)n1-c1ccc(F)cc1 [5-[1-(3,4-dichlorophenyl)-1-methylethyl]-1,2-bis(4-fluorophenyl)-1H-imidazole] as the compound, how does the EC50 read?
Answer: 100 to 1000 nM

Question: For CC(C)(c1ccc(Cl)c(Cl)c1)c1cnc(S(=O)(=O)Cc2ccc(F)c(C(F)(F)F)c2)n1-c1ccc(F)cc1 [5-[1-(3,4-dichlorophenyl)-1-methylethyl]-1-(4-fluorophenyl)-2-({[4-fluoro-3-(trifluoromethyl)phenyl]methyl}sulfonyl)-1H-imidazole], which EC50 is on record?
Answer: 100 to 1000 nM

Question: How did the EC50 turn out when CC(C)(c1ccc(Cl)c(Cl)c1)c1cnc(SCc2c(F)cc(F)cc2F)n1-c1ccc(F)cc1 [5-[1-(3,4-dichlorophenyl)-1-methylethyl]-1-(4-fluorophenyl)-2-{[(2,4,6-trifluorophenyl)methyl]thio}-1H-imidazole] was run?
Answer: < 100 nM

Question: CC(C)(c1ccc(Cl)c(Cl)c1)c1cnc(S(=O)(=O)N[C@H](CO)c2ccccc2)n1-c1ccc(F)cc1 [5-[1-(3,4-dichlorophenyl)-1-methylethyl]-1-(4-fluorophenyl)-N-[(1S)-2-hydroxy-1-phenylethyl]-1H-imidazole-2-sulfonamide] was tested. Which EC50 did it give?
Answer: 1000 to 10000 nM

Question: How did the EC50 turn out when CC(C)(c1ccc(Cl)c(Cl)c1)c1cnc(S(=O)(=O)NCc2ccc(C(F)(F)F)cc2F)n1-c1ccc(F)cc1 [5-[1-(3,4-dichlorophenyl)-1-methylethyl]-1-(4-fluorophenyl)-N-{[2-fluoro-4-(trifluoromethyl)phenyl]methyl}-1H-imidazole-2-sulfonamide] was run?
Answer: 100 to 1000 nM

Question: For CC(C)(c1ccc(Cl)c(Cl)c1)c1cnc(SCc2ccc(F)cc2S(C)(=O)=O)n1-c1ccc(F)cc1 [5-[1-(3,4-dichlorophenyl)-1-methylethyl]-2-({[4-fluoro-2-(methylsulfonyl)phenyl]methyl}thio)-1-(4-fluorophenyl)-1H-imidazole], which EC50 is on record?
Answer: 100 to 1000 nM
